SMILES strings stand for the structures.

Consider twelve compounds from US9073918B2, “Pyrazolo[4,3-b]pyridine-7-amine inhibitors of ALK5” (Takeda Pharmaceutical Company Limited, priority 2010, dated 2015).

In one assay the target is T1, TGF-β R1 ALK5 (Homo sapiens, UniProt P36897).
T1 construct: purchased Invitrogen PV5837
T1 sequence (P36897 34-503): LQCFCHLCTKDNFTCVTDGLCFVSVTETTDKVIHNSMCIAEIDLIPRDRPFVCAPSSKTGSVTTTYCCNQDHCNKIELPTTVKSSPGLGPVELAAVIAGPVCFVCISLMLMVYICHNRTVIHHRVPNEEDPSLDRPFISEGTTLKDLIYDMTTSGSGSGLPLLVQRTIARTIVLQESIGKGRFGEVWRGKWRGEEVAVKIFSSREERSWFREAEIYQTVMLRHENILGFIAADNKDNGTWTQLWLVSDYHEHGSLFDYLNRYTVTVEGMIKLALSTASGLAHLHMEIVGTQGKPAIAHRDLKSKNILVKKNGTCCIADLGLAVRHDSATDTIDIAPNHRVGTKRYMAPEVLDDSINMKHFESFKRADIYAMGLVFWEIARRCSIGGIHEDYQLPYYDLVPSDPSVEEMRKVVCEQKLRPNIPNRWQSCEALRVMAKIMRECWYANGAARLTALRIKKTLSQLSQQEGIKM
Briefly: In vitro inhibition of ALK5 (LanthaScreen activity assay, TR-FRET). It counts as biochemical. (In general: TR-FRET usually uses a lanthanide donor and a delayed reading to cut background.)

The target in another assay is T2, cellular TGF-β R1 ALK5 (Homo sapiens, UniProt P36897).
T2 construct: host or cells: CellSensor SBE-bla HEK 293T
T2 sequence (P36897 34-503): T1 sequence (P36897 34-503)
Briefly: Cellular inhibition of ALK5 (CellSensor SBE-bla HEK 293T beta-lactamase reporter). To be noted: cellular inhibition of ALK5, SBE-bla HEK 293T cells, TGFb-1 stimulated 5 hours; average where measured in multiple experiments. Format: cell-based. An outline of the steps: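 pIC50 derives from non-linear fitting of percent inhibition of the 460/530 nm CCF4-AM emission ratio, relative to DMSO+TGF-β wells. HEK 293T SBE-bla cells received compound (0.5% DMSO) for 1 h, TGFb-1 (100 ng/mL stock) for 5 h at 37 °C, then substrate 2 h at RT.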

What is called IC50 is the concentration needed to halve the response being measured. Take `Cc1ccc(F)c(-c2cc(Nc3ccnc4cnn(CCC(C)(C)O)c34)ccn2)n1` [Example 135, 4-(7-(3′-fluoro-6′-methyl-2,2′-bipyridin-4-ylamino)-1H-pyrazolo[4,3-b]pyridin-1-yl)-2-methylbutan-2-ol]: the 50% inhibitory concentration (IC50) on TGF-β R1 ALK5 was 15.8 nM; at cellular TGF-β R1 ALK5, 50.1 nM.
With `Cc1ccc(F)c(-c2cc(Nc3ccnc4cn(CC(F)F)nc34)ccn2)n1` [Example 104, 2-(2,2-difluoroethyl)-N-(3′-fluoro-6′-methyl-2,2′-bipyridin-4-yl)-2H-pyrazolo[4,3-b]pyridin-7-amine], the IC50 was 79.4 nM on TGF-β R1 ALK5 and 316 nM against cellular TGF-β R1 ALK5.
Taken in the same sequence, the figures for `CNC(=O)Cn1cc2nccc(Nc3cc(-c4nc(C)ccc4F)ncc3C)c2n1` [Example 146, 2-(7-(3′-fluoro-5,6′-dimethyl-2,2′-bipyridin-4-ylamino)-2H-pyrazolo[4,3-b]pyridin-2-yl)-N-methylacetamide] were 31.6 nM and 501 nM.
As to `Cc1ccc(F)c(-c2cc(Nc3ccnc4cn(C5CC5)nc34)ccn2)n1` [Example 121, 2-cyclopropyl-N-(3′-fluoro-6′-methyl-2,2′-bipyridin-4-yl)-2H-pyrazolo[4,3-b]pyridin-7-amine], the IC50 on TGF-β R1 ALK5 was 3.16 nM; against cellular TGF-β R1 ALK5, 12.6 nM.
In the case of `Cc1ccc(F)c(-c2cc(Nc3ccnc4cnn(CC5CC5)c34)ccn2)n1` [Example 89, 1-(cyclopropylmethyl)-N-(3′-fluoro-6′-methyl-2,2′-bipyridin-4-yl)-1H-pyrazolo[4,3-b]pyridin-7-amine], the values for the IC50 on TGF-β R1 ALK5 and against cellular TGF-β R1 ALK5 were 25.1 nM and 200 nM, respectively.
`Cc1ccc(F)c(-c2cc(Nc3ccnc4cnn(CC(F)F)c34)ccn2)n1` [Example 105, 1-(2,2-difluoroethyl)-N-(3′-fluoro-6′-methyl-2,2′-bipyridin-4-yl)-1H-pyrazolo[4,3-b]pyridin-7-amine]: the figures for the 50% inhibitory concentration (IC50) against TGF-β R1 ALK5 and against cellular TGF-β R1 ALK5 were 20 nM and 39.8 nM, respectively.
Turning to `Cc1ccc(F)c(-c2cc(Nc3c(F)cnc4cn(C[C@H](C)O)nc34)ccn2)n1` [Example 100A, (S)-1-(6-fluoro-7-(3′-fluoro-6′-methyl-2,2′-bipyridin-4-ylamino)-2H-pyrazolo[4,3-b]pyridin-2-yl)propan-2-ol], the IC50 is 398 nM on TGF-β R1 ALK5 and 1260 nM at cellular TGF-β R1 ALK5.
Turning to `Cc1ccc(F)c(-c2cc(Nc3ccnc4cn(C[C@H](O)CO)nc34)c(C)cn2)n1` [Example 7, (S)-3-(7-(3′-fluoro-5,6′-dimethyl-2,2′-bipyridin-4-ylamino)-2H-pyrazolo[4,3-b]pyridin-2-yl)propane-1,2-diol], the IC50 against TGF-β R1 ALK5 was 15.8 nM; against cellular TGF-β R1 ALK5 it was 200 nM.
Take `Cc1ccc(F)c(-c2cc(Nc3ccnc4cnn(CCO)c34)ccn2)n1` [Example 71, 2-(7-(3′-fluoro-6′-methyl-2,2′-bipyridin-4-ylamino)-1H-pyrazolo[4,3-b]pyridin-1-yl)ethanol]: the IC50 on TGF-β R1 ALK5 is 50.1 nM; against cellular TGF-β R1 ALK5 it was 63.1 nM.
On to `Cc1ccc(F)c(-c2cc(Nc3ccnc4cn(CCCO)nc34)c(C)cn2)n1` [Example 90, 3-(7-(3′-fluoro-5,6′-dimethyl-2,2′-bipyridin-4-ylamino)-2H-pyrazolo[4,3-b]pyridin-2-yl)propan-1-ol], for which the IC50 was 7.94 nM against TGF-β R1 ALK5 and 63.1 nM at cellular TGF-β R1 ALK5.
As for `CNC(=O)n1ncc2nccc(Nc3ccnc(-c4cc(F)ccc4F)c3)c21` [Example 94, 7-(2-(2,5-difluorophenyl)pyridin-4-ylamino)-N-methyl-1H-pyrazolo[4,3-b]pyridine-1-carboxamide], the IC50 against TGF-β R1 ALK5 is 2 nM; on cellular TGF-β R1 ALK5 it was 20 nM.
For the compound `CNC(=O)Cn1cc2nccc(Nc3ccnc(-c4nc(C)ccc4F)c3)c2n1` [Example 111, 2-(7-(3′-fluoro-6′-methyl-2,2′-bipyridin-4-ylamino)-2H-pyrazolo[4,3-b]pyridin-2-yl)-N-methylacetamide], the values for the IC50 at TGF-β R1 ALK5 and against cellular TGF-β R1 ALK5 were 501 nM and 12600 nM, respectively.
